Reference: patent publication US10588280B2, “Aided delivery of plant treatment agents” (Monsanto Technology LLC, priority 2014, dated 2020)

Experiments:
[1] = tested on: haploid corn seedlings (SAM); assay: Example 3: serial (submerged then unsubmerged) centrifugation with colchicine, survival and doubling success; type: in vivo; conditions: for DE / Fert. Success / Initial Survival / Poll. Success: 1000 ppm colchicine, submerged 50 g 3 min then unsubmerged 335 g 3 min
Excerpt: Seeds of 5 different F1 hybrid-derived haploid corn lines were randomly-selected and germinated in a greenhouse. The resulting seedlings were removed from soil or growth media at the V1-V3 growth stage and the soil or growth media rinsed from the plants with water. Seedlings were then aligned and assembled along with several rods in a bundled PCS similar to what is shown in FIG. 9 and a plant treatment solution comprising 1000 ppm colchicine was poured into the container such that the solution submerged the SAM of each plant and then the entire sample was centrifuged at 50 g for 3 min while the SAMs remained submerged in the plant treatment agent.
Following the first centrifugation, the plant treatment solution was decanted and the seedlings subjected to an unsubmerged centrifugation at 335 g for 3 min.
Following the second centrifugation, the plants were removed from the centrifugation container and rinsed with water to remove any remaining colchicine solution, and then recovered and tended in a light, humidity, and temperature-controlled greenhouse for several days before being transplanted to a nursery greenhouse.
The control sample received no colchicine exposure, but was otherwise handled identically as the experimental samples. During the subsequent growth of the plants, the initial survival, pollination success, fertilization success, final survival, and doubling efficiency was determined within each sample as described in Example 2.

haploid corn seedlings = assay: Example 5: field transplanting survival after single or serial spin with colchicine; type: in vivo; conditions: for 3-wk Survival (field transplanting): 50 g
Method: Haploid corn seedlings derived from a cross between commercial inbred 01DKD2 and the inducer KHI1 or commercial inbred 83IDI1 and KHI1 were treated by either single spin or serial spin centrifugation methods and recovered in a light, moisture, and temperature controlled environment for approximately 15 hours. Plants were then transplanted into a field and tended for three weeks, after which plant survival rates were assessed (Table 5).

seedlings = conditions: cited from earlier work

COc1cc2c(c(OC)c1OC)-c1ccc(OC)c(=O)cc1[C@@H](NC(C)=O)CC2 [colchicine]
DE ([1]; Ave: of five lines): 72% | Fert. Success ([1]; Ave: of five lines): 94% | Initial Survival ([1]; Ave: of five lines): 93% | Poll. Success ([1]; Ave: of five lines): 85% | DE ([1]; line F1004): 57% | Fert. Success ([1]; line F1004): 100% | Initial Survival ([1]; line F1004): 93% | Poll. Success ([1]; line F1004): 62% | DE ([1]; line F1045): 75% | Fert. Success ([1]; line F1045): 100% | Initial Survival ([1]; line F1045): 100% | Poll. Success ([1]; line F1045): 75% | DE ([1]; line F1095): 80% | Fert. Success ([1]; line F1095): 92% | Initial Survival ([1]; line F1095): 100% | Poll. Success ([1]; line F1095): 87% | DE ([1]; line F1118): 60% | Fert. Success ([1]; line F1118): 86% | Initial Survival ([1]; line F1118): 70% | Poll. Success ([1]; line F1118): 100% | DE ([1]; line F1900): 90% | Fert. Success ([1]; line F1900): 90% | Initial Survival ([1]; line F1900): 100% | Poll. Success ([1]; line F1900): 100% | individuals that produced pollen and silks ([1]; minimum over all five inbred samples receiving the experimental treatment): at least 62% | increase in overall DE as compared to controls ([1]; samples receiving serial centrifugation with 1000 ppm colchicine vs controls): 67% | 3 week post transplanting survival rate (haploid corn seedlings; either haploid line, regardless of colchicine concentration or second spin): higher than 80% | 3-wk Survival (field transplanting) (haploid corn seedlings; haploid parent 01DKD2, 1000 ppm colchicine, submerged 10 min, no second spin): 94% | 3-wk Survival (field transplanting) (haploid corn seedlings; haploid parent 01DKD2, 1250 ppm colchicine, submerged 3 min, unsubmerged 3 min, 335 g): 89% | 3-wk Survival (field transplanting) (haploid corn seedlings; haploid parent 83IDI1, 1000 ppm colchicine, submerged 10 min, no second spin): 81% | 3-wk Survival (field transplanting) (haploid corn seedlings; haploid parent 83IDI1, 1250 ppm colchicine, submerged 3 min, unsubmerged 3 min, 335 g): 83% | average success rate (seedlings; Eder and Chalyk (2002), procedure of Deimling et al.: 0.06% colchicine and DMSO, 12 hours, dark room, range of genotypes): ~50% | doubling rate (seedlings; Gayen et al. (1994): coleoptile tips removed, extended (6+ hours) soak, colchicine 0.1% or less): 18.05%
